Results published in article PMC7456637, “Pharmacokinetic characterization of fluorocoxib D, a cyclooxygenase-2-targeted optical imaging agent for detection of cancer” (Journal of Biomedical Optics, 2020).
“And” between values parts separate entries of the source, which are not always exact repeats. Equal entries are not always repeated. “Also recorded” adds a separate entry of the source.

Assays:
[1] = design: method as in earlier work; conditions: cited from earlier work
[2] = tested on: COX1; conditions: cited from earlier work
[3] = Pilot safety study: physical examination and adverse events; type: in vivo, dog
Description: (§1) The animal studies were performed in the accordance with the University of Tennessee Institutional Animal Care and Use Committee (UT IACUC)-approved protocols and in an accordance with NIH guidelines. Individually housed research healthy female beagle dogs (Covance Research Product) with weights of 6.7 to 10.3 kg were used to assess the safety and pharmacokinetic parameters of fluorocoxib D administrated a dose of 1 mg/kg over 20 min intravenously (i.v.).
For single dose safety evaluation studies, we administrated fluorocoxib D at 1 mg/kg , i.v. using a preplaced cephalic or saphenous vein catheter over 20 min to six healthy research dogs following protocol as described previously.[38] Briefly, physical examinations for signs of potential drug toxicity were performed before, during, and daily for 3 days after fluorocoxib D administration. Physical assessment included auscultation of heart and lungs, abdominal palpation, body temperature, appetite, attitude, activity levels monitoring, and other health-related events. Hypersensitivity was evaluated by direct observation of each dog during treatment for clinical signs of an allergic reaction (facial swelling, flushing, urticaria, dyspnea, scratching, and changes of heart rates). […] Laboratory evaluations of blood and urine were carried out before and 3 days after fluorocoxib D administration to monitor signs of toxicity. […] The CBC evaluated total white blood cells (WBC) and hematocrit (HCT), in addition to absolute numbers of neutrophils, lymphocytes, monocytes, eosinophils, and platelets. The plasma chemistry profile evaluated blood urea nitrogen (BUN), creatinine, proteins (albumin, globulins, and total proteins), alanine aminotransferase (ALT), total bilirubin, glucose, and electrolytes. The complete urinalysis evaluated urine proteins, glucose, and ketones; a sediment examination and urine-specific gravity were validated as well for any possible signs of renal toxicity of fluorocoxib D. All laboratory tests were carried out at the Veterinary Medical Center of the University of Tennessee in Knoxville.

[4] = Pharmacokinetics of fluorocoxib D in research dogs, plasma HPLC; type: in vivo, dog
Description: as §1
To determine the pharmacokinetic parameters of fluorocoxib D ( 1 mg/kg , i.v.) in dogs, blood (2 to 3 ml) was collected from the jugular vein into EDTA-treated tubes at 0, 0.5, 1, 2, 4, 8, and 24 h after compound administration. The blood was centrifuged within 20 min of sample collection. Plasma was removed and stored at −80°C until further HPLC analysis.
Levels of fluorocoxib D were determined in collected canine plasma samples using HPLC at Vanderbilt University (JU). The frozen samples were thawed and extracted with acetonitrile. The organic layer was collected, dried, and reconstituted in methanol and water. The unknown samples were quantitated against a 5-point standard curve, which was prepared by mixing known quantities of fluorocoxib D with commercial canine plasma (Sigma-Aldrich) and subjecting the resulting samples to liquid–liquid extraction and HPLC. Samples were analyzed using a reverse-phase column (C18, 5×0.2 cm , Phenomenex) with gradient elution. The mobile phase component A was water, and B was acetonitrile, each containing 0.1% acetic acid. The gradient was 50% B to 90% B over 5 min, followed by a brief hold and return to initial conditions. The flow rate was 0.3 ml/min .
The pharmacokinetic parameters for fluorocoxib D were estimated from the plasma concentration-time data by a nonlinear mixed effects approach, as implemented with Monolix 4.1.2 (Lixoft S.A.S., Orsay, France). This approach allowed analyzing data from all animals at the same time and was ideal for relatively sparse datasets like the one used in this study. The plasma clearance (Cl), representing the overall ability of the body to eliminate fluorocoxib D, was determined by scaling its elimination rate (amount per time) by the corresponding plasma concentration level. The volume of distribution (Vd) was defined as the ratio of the total amount of fluorocoxib D in the body to the blood plasma concentration. The Cl and Vd were estimated directly from the study population data. The peak concentration in plasma ( Cmax ) and the following pharmacokinetic parameters were obtained by averaging the corresponding post-hoc Bayesian estimates. The individual partial areas under the curve between times 0 and 8 h ( AUC0−8 ) and the AUC0−∞ with extrapolation to infinity were calculated using the log-linear trapezoidal rule, as implemented with WinNonlin 5.1 (Pharsight, Mountain View, California). The mean residence time (MRT) value was determined as the ratio of the area under the first moment curve over AUC0−∞ . The elimination rate constant was determined as the slope obtained by linear regression of the terminal log-linear portion of the concentration versus time curve, and the elimination half-life ( t1/2 ) was then calculated. The plasma concentration graphs were generated using calculated averaged plasma concentrations of fluorocoxib D from six dogs after 1 mg/kg i.v. of fluorocoxib D administration performed over 20 min.

[5] = Pilot safety study: complete blood count (CBC); type: in vivo, dog
Description: as §1
For single dose safety evaluation studies, we administrated fluorocoxib D at 1 mg/kg , i.v. using a preplaced cephalic or saphenous vein catheter over 20 min to six healthy research dogs following protocol as described previously.[38] Briefly, physical examinations for signs of potential drug toxicity were performed before, during, and daily for 3 days after fluorocoxib D administration. Physical assessment included auscultation of heart and lungs, abdominal palpation, body temperature, appetite, attitude, activity levels monitoring, and other health-related events. Hypersensitivity was evaluated by direct observation of each dog during treatment for clinical signs of an allergic reaction (facial swelling, flushing, urticaria, dyspnea, scratching, and changes of heart rates). […] Laboratory evaluations of blood and urine were carried out before and 3 days after fluorocoxib D administration to monitor signs of toxicity. Blood (up to 3 ml) was collected into ethylenediaminetetraacetic acid (EDTA) and heparin-treated tubes, and urine (up to 5 ml) was collected by cystocentesis or from the floor of the runs. The laboratory evaluation consisted of a complete blood count (CBC), serum chemistry profile, and complete urinalysis. The CBC evaluated total white blood cells (WBC) and hematocrit (HCT), in addition to absolute numbers of neutrophils, lymphocytes, monocytes, eosinophils, and platelets. The plasma chemistry profile evaluated blood urea nitrogen (BUN), creatinine, proteins (albumin, globulins, and total proteins), alanine aminotransferase (ALT), total bilirubin, glucose, and electrolytes. The complete urinalysis evaluated urine proteins, glucose, and ketones; a sediment examination and urine-specific gravity were validated as well for any possible signs of renal toxicity of fluorocoxib D. All laboratory tests were carried out at the Veterinary Medical Center of the University of Tennessee in Knoxville.

[6] = female, beagle, dog, plasma, iv, 1 mg/kg i.v., six research dogs, mean ± S.D.

## COc1ccc2c(c1)c(CC(=O)NCCCCNC(=O)c1ccc(C3=c4cc5c6c(c4Oc4c3cc3c7c4CCCN7CCC3)CCC[N+]=6CCC5)cc1)c(C)n2C(=O)c1ccc(Cl)cc1 [Fluorocoxib D, N -[(rhodamin-X-yl)but-4-yl]-2-[1-(4-chlorobenzoyl)-5-methoxy-2-methyl-1H-indol-3-yl]acetamide]
[1]
  Water solubility compared to fluorocoxib A: improved water solubility
[2]
  IC50: 4 µM
[3]; 1 mg/kg i.v. over 20 min, six research dogs
  Adverse events including diarrhea, vomiting, nausea, and loss of appetite: not observed
[3]; 1 mg/kg i.v. over 20 min, six research dogs, 3 days observation
  Overall safety / toxicity of single dose: No evidence of toxicity; also recorded: safe dose; also recorded: no clinically relevant adverse events
[3]; one dog of six, during 20 min i.v. administration, attributed to DMSO solvent
  Salivation during administration: increased salivation
[4]; 1 mg/kg i.v. over 20 min, dogs, HPLC
  Peak concentration in plasma: 114.8 ± 50.5 ng/mL
[4]; 1 mg/kg i.v., dogs, HPLC
  Detection in plasma after 4 h following administration: No fluorocoxib D was detected; also recorded: No detectable levels
[4]; female, beagle, dog, plasma, iv, 1 mg/kg i.v. over 20 min, dogs, read-out: Time of peak plasma concentration after administration
  Tmax: 30 min
[4]; female, beagle, dog, plasma, iv, 1 mg/kg i.v. over 20 min, six research dogs, mean ± S.D.
  Cmax: 110 ± 50 ng/mL
[4]; [6]
  AUC(0-inf): 150 ± 50 ng·h/mL
  MRT: 1.46 ± 0.42 h
[4]; female, beagle, dog, plasma, iv, 1 mg/kg i.v., six research dogs, mean ± S.D., read-out: AUC0-8
  AUC(0-t): 110 ± 40 ng·h/mL
[4]; female, beagle, dog, plasma, iv, 1 mg/kg i.v., six research dogs, mean ± S.D., read-out: Cl (clearance) (converted)
  clearance: 123 mL/min/kg
[4]; female, beagle, dog, plasma, iv, 1 mg/kg i.v., six research dogs, mean ± S.D., read-out: Vdarea (volume of distribution)
  Vd: 9.97 ± 4.76 L/kg
[4]; female, beagle, dog, plasma, iv, 1 mg/kg i.v., six research dogs, mean ± S.D., read-out: t1/2 (terminal/elimination half-life) (converted)
  half-life: 54.6 ± 17.4 min
[5]; 3 days after single dose 1 mg/kg i.v., dog #3, ADQ = adequate
  PLT EST (platelet estimate), After: ADQ
[5]; 3 days after single dose 1 mg/kg i.v., dog #3, reference range 147 to 423
  PLT CNT (platelets counts), After: 241000 µL⁻¹
[5]; 3 days after single dose 1 mg/kg i.v., dog #6, reference range 0 to 0.3
  Abs BAN (absolute band neutrophils), After: 0 µL⁻¹
[5]; 3 days after single dose 1 mg/kg i.v., individual dogs #1-#6, reference range 0 to 0.85, 1 mg/kg
  Abs EOS (absolute eosinophils), After: 240 µL⁻¹ and 360 µL⁻¹ and 140 µL⁻¹ and 200 µL⁻¹ and 180 µL⁻¹ and 170 µL⁻¹
[5]; 3 days after single dose 1 mg/kg i.v., individual dogs #1-#6, reference range 0.165 to 0.85, 1 mg/kg
  Abs MON (absolute monocytes), After: 230 µL⁻¹ and 300 µL⁻¹ and 240 µL⁻¹ and 490 µL⁻¹ and 380 µL⁻¹ and 620 µL⁻¹
[5]; 3 days after single dose 1 mg/kg i.v., individual dogs #1-#6, reference range 1.1 to 4.6, 1 mg/kg
  Abs LYM (absolute lymphocytes), After: 1610 µL⁻¹ and 2050 µL⁻¹ and 2220 µL⁻¹ and 1880 µL⁻¹ and 2300 µL⁻¹
[5]; 3 days after single dose 1 mg/kg i.v., individual dogs #1-#6, reference range 2.65 to 9.8, 1 mg/kg
  Abs SEG (absolute segmented neutrophils), After: 3.22 ×10^3/μl and 2.98 ×10^3/μl and 4 ×10^3/μl and 4.72 ×10^3/μl and 5.07 ×10^3/μl and 2.4 L ×10^3/μl
[5]; 3 days after single dose 1 mg/kg i.v., individual dogs #1-#6, reference range 5.1 to 14, 1 mg/kg
  WBC (white blood cells), After: 5.3 ×10^3/μl (2×) and 5.7 ×10^3/μl and 6.6 ×10^3/μl and 7.3 ×10^3/μl and 7.8 ×10^3/μl
[5]; 3 days after single dose 1 mg/kg i.v., individual dogs #1-#6, reference range 41 to 60, 1 mg/kg
  HCT (hematocrit), After: 45.2% and 47.2% (2×) and 45.6% and 47% and 48.1%
[5]; dog #6, remained afebrile and clinically normal, cause uncertain
  Neutrophil finding 3 days after administration: mild neutropenia
